One series deals with SHSY-5Y cells. As to the kind of experiment: Immunofluorescence of 3-nitrotyrosine and synaptophysin in SHANK3-silenced SHSY-5Y cells. Format: cell-based, human. The protocol:
A cell culture model for ASD was developed by silencing SHANK3 with an siRNA (5-3 RNA)-CGAUGAUAAGCAGUUUGCAAAGCUU (SEQ ID NO: 3) in the neuronal cell line SHSY-5Y cells, followed by silencing with of nNOS using the following RNA (5-3) CCUUGUCCAACAUGCUCCUAGAGAU (SEQ ID NO: 4).
SHSY-5Y Cells (with or without treatment) were fixed post treatment in 4% paraformaldehyde, incubated with the Primary rabbit MAP2+ primary mouse monoclonal 3-nitrotyrosine (FIGS. 9A-B) and with Primary rabbit monoclonal synaptophysin+primary mouse Map2 (FIGS. 9C-D). Thereafter, cells were incubated with anti-mouse secondary Alexa fluor488 (green)/594 (red), and anti-rabbit secondary Alexa fluor 488 (green)/594 (red), conjugated secondary antibodies. After washing, cells were mounted with DAPI (Blue). The images were acquired using a confocal microscope. Each group contained nine independent sets of experiments (initial cell seed number—about 10^6).
To support the effect of nucleic acid silencing on a SHANK3 silenced background, the present inventors applied siRNA to nNOS on […] SHSY-5Y Cells.

For series [1], the system named is C57BL/6 wild-type mice. Kind of series: Marble burying test, SNAP-treated wild-type mice. The series is classed as in vivo, mouse. To be noted: SNAP IP 20 mg/kg/day for 10 days; vs WT. The protocol: (§1) Behavioral testing started after 2 hours of treatment.
Marble Burying test (see, FIG. 4D): The marble-burying assay is a tool for assessing either anxiety-like and/or repetitive-like behaviors in mice. Subjects were tested in a regular clean cage (28 cm long×18 cm wide×12 cm high) with 3 cm of fresh bedding. The subject was first placed in the empty cage for a 5-min habituation. It was then temporary placed in an empty clean cage while 20 dark blue glass marbles (15 mm in diameter) were positioned over the bedding equidistant in a 4×5 arrangement to cover the whole cage surface. The subject was then returned in the test cage and allowed to explore and bury the marbles during a 15-min session that was videotaped. At the end of the session the subject was removed and the number of marbles buried (50% marble covered by bedding material) was recorded.
A marble burying test (as shown in FIG. 4D) was utilized as an indication for repetitive behaviors and restricted interests.

Series [2] has as its system C57BL/6 wild-type mice. As to the kind of experiment: Elevated plus maze test, SNAP-treated wild-type mice. The series is classed as in vivo, mouse. The protocol: as §1
Elevated plus maze test (see, FIG. 4C): The elevated plus-maze consisted of four arms (30×5 cm), two open, and the other two closed. The platform was made of white plexiglass. The apparatus was elevated 45 cm above the floor. The test, described in, was initiated by placing the mouse on the central platform of the maze, facing one of the open arms, and letting it move freely. Each session lasted 5 min. The time spent in the close and open arms was recorded.
An elevated plus maze test (see, FIG. 4C) was performed to evaluate the anxiety-like behaviors among the mice, typically the anxiety quantified as the time spent in the closed arms.

Series [3] deals with C57BL/6 wild-type mice. Kind of series: Three-chambered sociability test, SNAP-treated wild-type mice. Format: in vivo, mouse. On the procedure: as §1
Three-chambered sociability test (see, FIG. 4B): Sociability and preference for social novelty and social recognition were tested in a three-chambered apparatus. The subjected mouse was first placed in the central, neutral chamber and allowed to explore for 10 minutes with all the doors closed. Next, doors were opened and the mouse was allowed to freely explore the other two empty chambers (1 and 2) for an additional 10 minutes. Lack of side preference was confirmed during this habituation.
Two cylindrical wire cages were placed, one in chamber 1 and the other in chamber 2. For the sociability test, the test animal was introduced to the middle chamber and allowed to adjust for 5 minutes. Then, an unfamiliar mouse was introduced into a wire cage in one of the side-chambers, and the other side-chamber remained empty. The time spent by the test mouse exploring the wire cage with an unfamiliar mouse inside was recorded for 5 minutes.
Next, to examine social memory, novel mice is introduced to the empty cage and the tested mice is examined whether they are interested in the novel mice compared to the familiar.
S-nitroso-N-acetylpenicillamines (SNAP), is an NO donor that increases the NO availability, subsequently leading to nitrosative stress and aberrant SNO signaling. […] To examine the potential effect of SNAP administration on mice behaviors, a novel object recognition test (NOR) and sociability test were performed (See, FIGS. 4A-B), and the obtained data are presented in FIGS. 2A-B, respectively.
A three-chamber sociability test was conducted as in Example 2 (see also FIG. 4B), to evaluate the interest of the mice to engage in social interaction with a stranger mouse. Generally, the mice prefer to spend more time with another mouse (sociability), and the mice have the tendency to investigate a novel intruder more than a familiar one (social novelty). […]

Series [4] deals with C57BL/6 wild-type mice. Kind of series: Novel object recognition test (NOR), SNAP-treated wild-type mice. Format: in vivo, mouse. The protocol: as §1
Novel object recognition (see, FIG. 4A): The novel object test for object recognition and memory takes place in a white open field arena (45×45 cm). The test involves a set of two unique novel objects, each about the size of a mouse, constructed from two different materials and non-uniform in shape. The test consisted of one 10-minute habituation session, a 5-minute familiarization session and a 5-minute recognition test, each video tracked (Noldus Ethovision). During the habituation, animals were allowed to freely explore an empty open field. At the end of the session, they were shifted from the open field to a place in a temporary clean holding cage for about 2 minutes. Two identical objects were placed on the median line at 10 cm from each wall and the animal was returned to the open field and allowed to explore the objects for 5 minutes before being returned to its home cage. Next day, one familiar object and one novel object were placed in the open field to the location where the identical objects were placed during the familiarization session and the mouse was allowed to explore them for a 5-minute recognition test. […] Familiarization and recognition sessions were scored for total time spent investigating each object, the number of object interactions and the latency of the first object interaction. […]

[5] abbreviates: SNAP IP 20 mg/kg/day for 7 days, wild-type mice vs control group.
Where [6] appears, read: SNAP IP 20 mg/kg/day for 10 days, C57BL/6 WT mice.

For the substance “SHANK3 si-RNA: siRNA CGAUGAUAAGCAGUUUGCAAAGCUU (SEQ ID NO: 3) silencing SHANK3 (CGAUGAUAAGCAGUUUGCAAAGCUU; listed as RNA, chemistry not given here)”, the “synaptophysin expression (immunofluorescence)” value with SHSY-5Y cells (SHSY-5Y cells treated with SHANK3 si-RNA alone) is recorded as “downregulated”.
For the substance “siRNA to nNOS: RNA (5-3) CCUUGUCCAACAUGCUCCUAGAGAU (SEQ ID NO: 4) silencing nNOS (CCUUGUCCAACAUGCUCCUAGAGAU; listed as RNA, chemistry not given here)”, the “synaptophysin protein expression (immunofluorescence)” value in the series with SHSY-5Y cells (nNOS knockdown in the SHANK3 si-RNA group (double knockdown)) is on record as “recovery in synaptophysin protein expression”. Also, the “nitrotyrosine production (immunofluorescence)” value in the series on SHSY-5Y cells (nNOS silencing in the SHANK3 si-RNA group (double knockdown)) is given as “reduction in nitrotyrosine production”.
In the case of S-nitroso-N-acetylpenicillamines [SNAP], the “number of marbles buried” value in the series on C57BL/6 wild-type mice [1] was “buried significantly less marbles”. In addition, the “time in the closed arms (elevated plus maze)” value in the series on C57BL/6 wild-type mice [2] (SNAP IP 20 mg/kg/day for 10 days, vs WT group) is recorded as “spent significantly more time in the closed arms compared to WT group”. For the same substance, in the series on C57BL/6 wild-type mice [2] (SNAP i.p. 20 mg/kg daily for 10 days, vs WT), the “time spent in the open arms (elevated plus maze)” value is on record as “significantly decreased time in the open arms”. In the series on C57BL/6 wild-type mice [3] (setting [5]), the “preference to engage in social interaction (sociability test)” value is listed as “did not exhibit any preference to engage in social interaction”. For the same substance, in the series on C57BL/6 wild-type mice [3] (setting [6]), the “preference for novel mouse (S2) vs familiar (S1) (second session, social novelty)” value is “did not exhibit any significant preference to engage in social interaction with the mice” and the “time interacting with stranger mouse vs empty cage (first session, sociability)” value is on record as “spent more time interacting with the stranger mouse than with the empty cage”. Besides, in “Solubility in DMSO”, the “solubility in DMSO” value was determined as 20 mg/mL. For the same substance, the “preference for the novel object (NOR test)” value with C57BL/6 wild-type mice [4] (setting [5]) is “failed to display a preference for the novel object”. For the same substance, the “preference for the novel object (NOR test)” value with C57BL/6 wild-type mice [4] (setting [6]) is reported as “failed to display a preference for the novel object”.
